In ChEMBL document CHEMBL1140420, “Synthesis of tricyclic 1,3-oxazin-4-ones and kinetic analysis of cholesterol esterase and acetylcholinesterase inhibition” (J Med Chem, 2005):

What was measured:
[1] = biological target: T1, Bile salt-activated lipase (Bos taurus, UniProt P30122)
T1 sequence (P30122 whole entry): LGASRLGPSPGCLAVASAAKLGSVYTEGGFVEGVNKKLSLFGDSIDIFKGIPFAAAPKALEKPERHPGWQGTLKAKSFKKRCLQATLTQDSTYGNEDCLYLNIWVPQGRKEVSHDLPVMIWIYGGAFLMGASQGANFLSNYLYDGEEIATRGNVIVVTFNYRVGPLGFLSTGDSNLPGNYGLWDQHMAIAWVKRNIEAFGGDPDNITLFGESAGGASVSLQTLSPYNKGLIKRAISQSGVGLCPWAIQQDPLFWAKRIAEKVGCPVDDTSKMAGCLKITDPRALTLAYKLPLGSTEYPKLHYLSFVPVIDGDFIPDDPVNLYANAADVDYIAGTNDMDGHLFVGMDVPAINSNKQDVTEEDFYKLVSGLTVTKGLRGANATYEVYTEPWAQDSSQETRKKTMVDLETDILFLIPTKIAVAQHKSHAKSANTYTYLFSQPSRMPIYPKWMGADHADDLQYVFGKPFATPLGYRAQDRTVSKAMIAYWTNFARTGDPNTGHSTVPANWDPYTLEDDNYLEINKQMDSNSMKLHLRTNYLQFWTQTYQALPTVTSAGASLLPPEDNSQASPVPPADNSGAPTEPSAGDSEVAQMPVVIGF
Description: Inhibitory activity against bovine pancreatic CEase in presence of pNPB chromogenic substrate by spectrophotometry

Acetylcholinesterase = Acetylcholinesterase (Electrophorus electricus, UniProt O42275)
Chain of Acetylcholinesterase (O42275 whole entry): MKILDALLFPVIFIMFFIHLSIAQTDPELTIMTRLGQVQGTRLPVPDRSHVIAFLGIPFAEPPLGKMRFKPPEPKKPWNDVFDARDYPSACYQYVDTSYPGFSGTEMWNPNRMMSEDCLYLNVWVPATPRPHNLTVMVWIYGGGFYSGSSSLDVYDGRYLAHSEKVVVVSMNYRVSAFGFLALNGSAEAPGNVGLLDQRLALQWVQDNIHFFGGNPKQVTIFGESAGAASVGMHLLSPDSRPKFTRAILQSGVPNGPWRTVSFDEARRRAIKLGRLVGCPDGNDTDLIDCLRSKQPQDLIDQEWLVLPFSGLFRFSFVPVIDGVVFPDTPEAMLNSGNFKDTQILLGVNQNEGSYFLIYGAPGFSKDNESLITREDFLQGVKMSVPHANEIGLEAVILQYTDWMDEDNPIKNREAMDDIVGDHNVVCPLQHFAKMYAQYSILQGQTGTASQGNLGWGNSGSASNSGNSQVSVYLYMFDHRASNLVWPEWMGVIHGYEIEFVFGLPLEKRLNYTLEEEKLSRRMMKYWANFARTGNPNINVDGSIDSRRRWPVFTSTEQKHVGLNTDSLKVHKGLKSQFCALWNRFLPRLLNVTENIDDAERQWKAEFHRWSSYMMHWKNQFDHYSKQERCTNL
Description: Inhibitory activity AChE from Electrophorus electricus using ATCh substrate and DTNB by spectrophotometry

With CCN(CC)c1nc2sc3ccccc3c2c(=O)o1 the Ki [1] was 7.5 µM and the IC50 (Acetylcholinesterase) was over 50 µM.
O=c1sc(Nc2ccccc2)nc2sc3c(c12)CCN(Cc1ccccc1)C3 was tested, and the Ki [1] was over 50 µM and the IC50 (Acetylcholinesterase) was 1.03 µM.
Work on O=C(Nc1nc2sc3c(c2c(=O)o1)CCN(Cc1ccccc1)C3)c1ccccc1 yielded a Ki [1] of over 50 µM and an IC50 (Acetylcholinesterase) of 2.86 µM.
With O=c1sc(NC2CCCCC2)nc2sc3c(c12)CCN(Cc1ccccc1)C3 the Ki [1] was over 50 µM and the IC50 (Acetylcholinesterase) was 2.82 µM.
Compound O=c1oc(Nc2ccccc2)nc2sc3c(c12)CCN(Cc1ccccc1)C3 has a Ki [1] of over 50 µM and an IC50 (Acetylcholinesterase) of 0.94 µM.
With CCN(CC)c1nc2sc3c(c2c(=O)o1)CCC3 the Ki [1] was 0.58 µM and the IC50 (Acetylcholinesterase) was over 50 µM.
CCN(CC)c1nc2sc3c(c2c(=O)o1)CCN(Cc1ccccc1)C3 showed a Ki [1] of over 50 µM and an IC50 (Acetylcholinesterase) of 2.08 µM.
In the case of CC(C)Nc1nc2sc3c(c2c(=O)o1)CCCC3, the Ki [1] is reported as over 50 µM and the IC50 (Acetylcholinesterase) is reported as over 50 µM.
Work on CN(Cc1ccccc1)c1nc2sc3c(c2c(=O)o1)CCN(Cc1ccccc1)C3 yielded a Ki [1] of over 50 µM and an IC50 (Acetylcholinesterase) of 0.84 µM.
O=C(Nc1nc2sc3c(c2c(=O)s1)CCN(Cc1ccccc1)C3)c1ccccc1 was tested, and the Ki [1] was over 50 µM and the IC50 (Acetylcholinesterase) was 5.2 µM.
With O=c1oc(N2CCOCC2)nc2sc3c(c12)CCN(Cc1ccccc1)C3 the Ki [1] was over 50 µM and the IC50 (Acetylcholinesterase) was 0.77 µM.
CC(C)CN1CCc2c(sc3nc(N(C)C)oc(=O)c23)C1 gave a Ki [1] of over 50 µM, an IC50 (Acetylcholinesterase) of 0.36 µM and a Ki (Acetylcholinesterase) of 0.66 µM.
Compound O=c1oc(NC2CCCCC2)nc2sc3c(c12)CCN(Cc1ccccc1)C3 has a Ki [1] of over 50 µM.
CCN(CC)c1nc2scc(C)c2c(=O)o1 was tested, and the Ki [1] was 15 µM and the IC50 (Acetylcholinesterase) was over 50 µM.
CN(C)c1nc2sc3c(c2c(=O)o1)CCN(C(=O)c1ccccc1)C3 was tested, and the Ki [1] was over 50 µM and the IC50 (Acetylcholinesterase) was 35.6 µM.
Work on CN(C)c1nc2sc3c(c2c(=O)o1)CCOC3 yielded a Ki [1] of over 50 µM and an IC50 (Acetylcholinesterase) of over 50 µM.
Work on CCN(CC)c1nc2sc(C)c(C)c2c(=O)o1 yielded a Ki [1] of 4.3 µM and an IC50 (Acetylcholinesterase) of over 50 µM.
For CN(C)c1nc2sc3c(c2c(=O)o1)CCCC3, the Ki [1] was 2.15 µM and the IC50 (Acetylcholinesterase) was over 50 µM.
CCN1CCc2c(sc3nc(N(C)C)oc(=O)c23)C1 was tested, and the Ki [1] was over 50 µM and the IC50 (Acetylcholinesterase) was 10.5 µM.
In the case of CCN(CC)c1nc2sc3c(c2c(=O)o1)CCCCC3, the Ki [1] is reported as 6 µM and the IC50 (Acetylcholinesterase) is reported as over 50 µM.
CCN(CC)c1nc2sc3c(c2c(=O)o1)C(C)CCC3 (stereo not drawn) showed a Ki [1] of 1.64 µM and an IC50 (Acetylcholinesterase) of over 50 µM.
In the case of CN(C)c1nc2sc3c(c2c(=O)o1)CCC3, the Ki [1] is reported as 0.63 µM and the IC50 (Acetylcholinesterase) is reported as over 50 µM.
CC(C)Nc1nc2sc3c(c2c(=O)s1)CCN(Cc1ccccc1)C3 gave a Ki [1] of over 50 µM and an IC50 (Acetylcholinesterase) of 0.58 µM.
CCN(CC)c1nc2sc3c(c2c(=O)o1)CCCC3 showed a Ki [1] of 1.86 µM and an IC50 (Acetylcholinesterase) of over 50 µM.
In the case of CN1CCc2c(sc3nc(N(C)C)oc(=O)c23)C1, the Ki [1] is reported as over 50 µM and the IC50 (Acetylcholinesterase) is reported as 38.9 µM.
For Nc1nc2sc3c(c2c(=O)o1)CCN(Cc1ccccc1)C3, the Ki [1] was over 50 µM and the IC50 (Acetylcholinesterase) was 5.9 µM.
In the case of CN(c1nc2sc3c(c2c(=O)o1)CCCC3)C1CCCCC1, the Ki [1] is reported as 18 µM and the IC50 (Acetylcholinesterase) is reported as over 50 µM.
In the case of COc1ccc(CN(C)c2nc3sc4c(c3c(=O)o2)CCN(Cc2ccccc2)C4)cc1OC, the Ki [1] is reported as over 50 µM and the IC50 (Acetylcholinesterase) is reported as 0.33 µM.
CN(C)c1nc2sc3c(c2c(=O)o1)CCSC3 was tested, and the Ki [1] was 5.76 µM and the IC50 (Acetylcholinesterase) was over 50 µM.
Work on Nc1nc2sc3c(c2c(=O)s1)CCN(Cc1ccccc1)C3 yielded a Ki [1] of over 50 µM and an IC50 (Acetylcholinesterase) of 1.2 µM.
CC(C)Nc1nc2sc3c(c2c(=O)o1)CCN(Cc1ccccc1)C3 was tested, and the Ki [1] was over 50 µM and the IC50 (Acetylcholinesterase) was 0.74 µM.
CCN(CC)c1nc2scc(C(C)C)c2c(=O)o1 gave a Ki [1] of 6.4 µM and an IC50 (Acetylcholinesterase) of over 50 µM.
Compound CN(C)c1nc2sc3c(c2c(=O)o1)CCN(Cc1ccccc1)C3 has a Ki [1] of over 50 µM, an IC50 (Acetylcholinesterase) of 0.89 µM and a Ki (Acetylcholinesterase) of 1.7 µM.
O=c1oc(N2CCN(Cc3ccccc3)CC2)nc2sc3c(c12)CCN(Cc1ccccc1)C3 gave a Ki [1] of over 50 µM and an IC50 (Acetylcholinesterase) of 1.32 µM.
CCN(CC)c1nc2sc(C(N)=O)c(C)c2c(=O)o1 gave a Ki [1] of over 50 µM and an IC50 (Acetylcholinesterase) of over 50 µM.
With O=c1oc(N2CCOCC2)nc2sc3c(c12)CCCC3 the Ki [1] was 5.7 µM and the IC50 (Acetylcholinesterase) was over 50 µM.
